The values that follow come from patent publication US11312709B2, “Ghrelin O-acyltransferase inhibitors” (Glaxosmithkline Intellectual Property Development Limited, priority 2018, dated 2022).

pIC50: −log10 of the molar value.

In one assay the target is human GOAT (Homo sapiens (Human), UniProt Q96T53). Nature of the assay: GOAT TR-FRET (HTRF) inhibition assay, 384-well. The class given is biochemical. The settings on record: His-tag human GOAT membrane preparation from sf9 cells; read-out: hGOAT IC50. On the procedure:
Compounds contained herein were evaluated for their ability to inhibit the activity of GOAT. GOAT activity was assessed using a time-resolved fluorescence energy transfer (TR-FRET) assay in a 384-well format. His-tag human GOAT enzyme was in the form of a cell membrane preparation from sf9 cells infected with hGOAT-V5-His baculovirus. Varying concentrations of test compound with final DMSO concentration kept to 0.5% were added to membrane solution. Human GOAT membrane activity was established in a buffer having final concentration 0.25 mg/mL in 50 mM MOPS, pH7.5; 50 mM KCl; 0.1 mg/mL BSA; 50 μM CHAPS; and 2 mM EDTA. Substrate solution consisting of biotinylated ghrelin peptide (final concentration 100 nM), octanoyl coA (final concentration 2 μM) and palmitoyl CoA (final concentration 50 μM) was added to initiate the reaction. Plates were sealed, centrifuged for 1 minute at 2000 rpm, then incubated at 30° C. for 80 minutes with gentle shaking on an Eppendorf mix plate. Reaction termination and detection mix consisting of chicken anti-active ghrelin antibody (final concentration of 10 nM), Europium W1024-labeled streptavidin (final concentration of 4 nM), GOAT anti-chicken Dylight (final concentration of 12.5 nM), and GS[DAP-oc]-FL-amide inhibitor (final concentration of 1 μM) was added before further incubation for 40 minutes at 30° C. The plate was then read on an Envision in HTRF mode with excitation filter UV (TRF) 340 and first emission filter of APC 665 and a second emission filter of Europium 615. HTRF readings were acquired as per instrument defined LANCE-DELFIA protocol with a delay and window times of 50 μs for both; number of sequential windows: 1; time between flashes: 2000 μs between each of 100 flashes and 10 flashes for the second detector. The HTRF ratio was calculated directly by the instrument as the ratio of 665 window/615 window. Percent inhibition was calculated as 100−(100×(U−NC)/(PC−NC)) where U was the unknown value HTRF ratio (test compound value), NC was the negative control (100% inhibition value generated from a potent inhibitor), and PC was the positive control (100% activity generated from 0.5% DMSO vehicle). IC50 values were generated in GraphPad Prism (Version 4.03) using non-linear regression curve fit and sigmoidal dose response variable slope analysis.
A general note: Time-resolved FRET reads energy transfer from a long-lived donor to a nearby acceptor.

Assay [1] relates to acyl ghrelin. Briefly: Acyl ghrelin reduction in mice on a high fat, high carb diet. The class given is in vivo, male C57BL/6 mice. The settings on record: HFHC diet; for reduction in acyl ghrelin levels compared to Rimonabant followed by vehicle: statistically significant. On the procedure:
Normal mice were acclimated to individual housing for two weeks on normal chow diet (20% calories from protein, 35% from carbohydrate, and 45% from fat). All mice except a control group were then switched to a high fat, high carb (HFHC) diet to cause obesity. Mice on the HFHC diet were administered 3 mg/kg Rimonabant once daily for seven days to cause weight loss except for one group that initiated 10 mg/kg Example 1a immediately. Mice that had been treated with Rimonabant were then administered various treatments in the evening for 21 days: vehicle, 3 mg/kg Rimonabant, or 10 mg/kg Example 1a. Mice were fasted overnight and administered a final treatment in the morning. Three hours later, blood was collected for plasma acyl ghrelin and des-acyl ghrelin determination.

The subject of assay [2] is acyl ghrelin. Nature of the assay: Acyl ghrelin reduction in rats (fasting induced). The note with it: 10 mg/kg, same design as mice. The class given is in vivo, male SD rats. On the procedure:
(§1) Normal mice were administered various oral doses of Example 1a on a bid basis for two days (4 doses). Food was withdrawn the evening of the second day after the fourth dose, and then the animals were administered a final dose the morning of the third day. Three hours after this fifth and final dose, blood was collected for ghrelin and acyl ghrelin measurement by ELISA.
The same experimental design was conducted in rats administered 10 mg/kg of Example 1a.

Assay [3] concerns acyl ghrelin. Nature of the assay: Acyl ghrelin reduction in mice (fasting induced). The class given is in vivo. The note with it: 5 doses; for acyl ghrelin reduction: 3 h after final dose, p<0.05. The protocol: as §1
Assay [4] relates to acyl ghrelin. Nature of the assay: Single-dose PK/PD study, acyl ghrelin reduction in cynomolgus monkeys. It is filed as in vivo. The note with it: single oral dose 10 mg/kg, over the first 24 hours, fasted. The protocol: A single-dose PK/PD study was conducted in cynomolgus monkeys after a 10 mg/kg dose of Example 1a. On day zero, after an overnight fast, three monkeys were administered an oral dose of vehicle, and blood was collected pre-dose and 1, 3, 8, and 24 hours later. The 24 hour time point served as the pre-dose measurement for day 1 when, after an overnight fast, the monkeys were administered a single oral dose of 10 mg/kg Example 1a. Blood was collected at various time points (15 minutes, 30 minutes, 1 hour, 3 hours, 8 hours, 24 hours, 48 hours, 96 hours, and 168 hours) with overnight fasting throughout the study.

Where [5] appears, read: normal mice, various oral doses bid, blood 3 h after final dose, fasted, ELISA.
Where [6] appears, read: continuous treatment with 10 mg/kg Example 1a.

Sequence of human GOAT (Q96T53 whole entry): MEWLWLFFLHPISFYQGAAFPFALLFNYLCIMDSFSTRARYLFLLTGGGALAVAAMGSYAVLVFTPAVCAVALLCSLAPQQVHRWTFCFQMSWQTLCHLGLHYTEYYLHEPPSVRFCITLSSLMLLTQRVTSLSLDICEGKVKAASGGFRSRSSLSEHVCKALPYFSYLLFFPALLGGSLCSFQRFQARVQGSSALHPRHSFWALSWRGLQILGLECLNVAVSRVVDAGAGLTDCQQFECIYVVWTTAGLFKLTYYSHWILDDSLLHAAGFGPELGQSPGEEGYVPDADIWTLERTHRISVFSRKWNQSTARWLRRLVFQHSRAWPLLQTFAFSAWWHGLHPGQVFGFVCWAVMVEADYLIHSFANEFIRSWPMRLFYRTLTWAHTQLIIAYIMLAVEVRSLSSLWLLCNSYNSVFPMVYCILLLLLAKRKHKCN

One may read the pIC50 as −log10 of the IC50, conventionally taken in molar units. Regarding `Cc1ccc2c(n1)CC[C@H]2Oc1cc(Cl)c2c(CC(=O)O)csc2c1` [Example 2b, (R)-2-(4-chloro-6-((2-methyl-6,7-dihydro-5H-cyclopenta[b]pyridin-5-yl)oxy)benzo[b]thiophen-3-yl)acetic acid], the pIC50 on human GOAT was greater than 5.30.

Take `O=C(O)Cc1csc2cc(O[C@H]3COc4ncccc43)cc(Cl)c12` [Example 6a]: the pIC50 at human GOAT is greater than 7.30.

Take `N#Cc1ccc2c(n1)CCC2Oc1cc(Cl)c2c(CC(=O)O)csc2c1` (racemic) [Example 8, 2-(4-chloro-6-((2-cyano-6,7-dihydro-5H-cyclopenta[b]pyridin-5-yl)oxy)benzo[b]thiophen-3-yl)acetic Acid]: on human GOAT, the pIC50 is greater than 7.30.

As for `Cc1ccc2c(n1)CC[C@@H]2Oc1cc(Cl)c2c(CC(=O)O)csc2c1` [Example 2a, (S)-2-(4-chloro-6-((2-methyl-6,7-dihydro-5H-cyclopenta[b]pyridin-5-yl)oxy)benzo[b]thiophen-3-yl)acetic acid], on human GOAT, the negative logarithm of the IC50 (pIC50) was greater than 7.30.

Consider `NC(=O)c1ccc2c(n1)CC[C@H]2Oc1cc(Cl)c2c(CC(=O)O)csc2c1` [Example 9b], for which the pIC50 at human GOAT was greater than 7.30.

Take `NC(=O)c1ccc2c(n1)CC[C@@H]2Oc1cc(Cl)c2c(CC(=O)O)csc2c1` [Example 9a]: at human GOAT, the pIC50 is greater than 6.30.

For `O=C(O)Cc1csc2c(Cl)c(O[C@@H]3CCc4nc(C(F)(F)F)ccc43)cc(Cl)c12` [Example 4b], the pIC50 on human GOAT is greater than 7.30.

As to `O=C(O)Cc1csc2c(Cl)c(O[C@H]3COc4ncccc43)cc(Cl)c12` [Example 7a], at human GOAT, the pIC50 is greater than 5.30.

Take `Cc1c(C(=O)NN2CCCCC2)nn(-c2ccc(Cl)cc2Cl)c1-c1ccc(Cl)cc1` [Rimonabant, reference compound]: the “acyl ghrelin levels (so in the source); context is des-acyl ghrelin, FIG. 8)” value with acyl ghrelin [1] (3 mg/kg Rimonabant treatment alone, not as much as with Example 1a) is reported as “increased”.

In the case of `O=C(O)Cc1csc2c(Cl)c(O[C@@H]3CCc4nc(Cl)ccc43)cc(Cl)c12` [Example 3b], the pIC50 at human GOAT was greater than 7.30.

`O=C(O)Cc1csc2c(Cl)c(O[C@H]3CCc4nc(Cl)ccc43)cc(Cl)c12` [Example 3a]: the pIC50 on human GOAT is greater than 6.30.

Regarding `O=C(O)Cc1csc2c(F)c(O[C@H]3COc4nc(C(F)(F)F)ccc43)cc(Cl)c12` [Example 5a], the pIC50 on human GOAT is greater than 5.30.

Consider `O=C(O)Cc1csc2c(F)c(O[C@@H]3COc4nc(C(F)(F)F)ccc43)cc(Cl)c12` [Example 5b], for which, on human GOAT, the pIC50 is greater than 7.30.

For the compound `O=C(O)Cc1csc2c(Cl)c(O[C@H]3CCc4nc(C(F)(F)F)ccc43)cc(Cl)c12` [Example 4a], the pIC50 at human GOAT is greater than 6.30.

As to `O=C(O)Cc1csc2cc(O[C@@H]3CCc4ncccc43)cc(Cl)c12` [Example 1b, (R)-2-(4-chloro-6-((6,7-dihydro-5H-cyclopenta[b]pyridin-5-yl)oxy)benzo[b]thiophen-3-yl)acetic acid], the pIC50 on human GOAT was greater than 5.30.

As for `O=C(O)Cc1csc2c(Cl)c(O[C@@H]3COc4ncccc43)cc(Cl)c12` [Example 7b], the negative-log IC50 (pIC50) on human GOAT was greater than 7.30.

Consider `O=C(O)Cc1csc2cc(O[C@@H]3COc4ncccc43)cc(Cl)c12` [Example 6b], for which, on human GOAT, the pIC50 was greater than 7.30.

`O=C(O)Cc1csc2cc(O[C@H]3CCc4ncccc43)cc(Cl)c12` [Example 1a, (S)-2-(4-chloro-6-((6,7-dihydro-5H-cyclopenta[b]pyridin-5-yl)oxy)benzo[b]thiophen-3-yl)acetic Acid]: in the assay with acyl ghrelin [2], the acyl ghrelin levels entry is recorded as “significantly reduced” and the des-acyl ghrelin levels entry was “increased”. For the same compound, the acyl ghrelin reduction result in the assay on acyl ghrelin [3] (1 mg/kg oral bid) is recorded as “statistically significant”. The acyl ghrelin reduction entry in the assay with acyl ghrelin [3] (10 mg/kg oral bid) was “statistically significant”. Further, in the assay on acyl ghrelin [3] (setting [5]), the “acyl ghrelin (dose response)” value is recorded as “Dose-dependent decreases” and the “des-acyl ghrelin (dose response)” value is on record as “increases”. Moreover, the “reduction in acyl ghrelin levels compared to Rimonabant followed by vehicle” value in the assay with acyl ghrelin [1] (10 mg/kg Example 1a for 21 days after 7 days of 3 mg/kg Rimonabant) came to 61%. The “des-acyl ghrelin levels relative to Rimonabant followed by vehicle treatment” value in the assay with acyl ghrelin [1] (both Example 1a treatments (10 mg/kg)) is on record as “statistically significantly elevated”. In the assay with acyl ghrelin [1] (setting [6]), the “reduction in acyl ghrelin compared to vehicle treatment alone” value was 28% and the “reduction in acyl ghrelin levels compared to Rimonabant followed by vehicle” value stood at 57%. Also, the pIC50 at human GOAT was greater than 7.30. Besides, the “reduction in the acyl ghrelin AUC relative to vehicle treatment” value in the assay with acyl ghrelin [4] was found to be 51%.
